Here are results for 17 compounds from PubChem BioAssay (NCI).

Among the test systems are KM20L2 colon; DLD-1 colon; LXFL 529 NSCLC; DMS 114 small cell lung; SNB-78 CNS; HOP-18 NSCLC; M19-MEL melanoma; XF 498 CNS; RXF-631 renal.
Holding throughout (assay): NCI anticancer screen, dose series, 48 h

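Method: 48-hour compound exposure of cells in 96-well plates, five concentrations, linear interpolation of endpoints. TGI: concentration producing complete growth inhibition.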

Take `O=C(CCN1CCC(CCO)CC1)Nc1ccc2c(c1)C(=O)c1ccc(NC(=O)CCN3CCC(CCO)CC3)cc1C2=O`: the TGI came out at 77.8 µM with KM20L2 colon; 22.2 µM with DLD-1 colon; 19.8 µM in the experiment on LXFL 529 NSCLC; 21.7 µM in the experiment with DMS 114 small cell lung; 21.6 µM with SNB-78 CNS; 80.1 µM with HOP-18 NSCLC. Moreover, the TGI in the experiment on M19-MEL melanoma is above 100 µM.
Take `CN(C)CCN(C)C(=O)C1CCCN1C(=O)OCc1ccccc1` (stereo not given): the TGI with KM20L2 colon, in the experiment with DLD-1 colon, with LXFL 529 NSCLC, in the experiment with DMS 114 small cell lung, in the experiment with XF 498 CNS and with SNB-78 CNS was above 100 µM each time. The same compound came in with a TGI in the experiment with M19-MEL melanoma above 100 µM.
As to `CN(C)CC1CCCCCCCCCCCCC(CN(C)C)C1=O` (stereo not given), the TGI was 24.9 µM in the experiment on KM20L2 colon; 29.6 µM with DLD-1 colon; 28.1 µM in the experiment on LXFL 529 NSCLC; 31.3 µM in the experiment on DMS 114 small cell lung; 28.7 µM with SNB-78 CNS; 30.1 µM in the experiment on HOP-18 NSCLC. For the same compound, the TGI in the experiment with M19-MEL melanoma was 25.1 µM.
`CC1=NC=C(O)c2ccccc2O1`: the TGI in the experiment with KM20L2 colon, in the experiment on DLD-1 colon, in the experiment on LXFL 529 NSCLC, with DMS 114 small cell lung, in the experiment with SNB-78 CNS and with M19-MEL melanoma was above 100 µM each time.
Regarding `CC(=O)Oc1c(Br)ccc2cc(C(Br)Br)c(C(=O)c3ccccc3)nc12`, the TGI with KM20L2 colon was 42.2 µM; in the experiment with DLD-1 colon it was 51.5 µM; in the experiment on RXF-631 renal, 47.6 µM; in the experiment with LXFL 529 NSCLC it was 52.3 µM; in the experiment on DMS 114 small cell lung it was 49.6 µM; in the experiment on XF 498 CNS it was 36.1 µM. For the same compound, the TGI in the experiment with SNB-78 CNS was found to be 71.4 µM; in the experiment on HOP-18 NSCLC it was 31.2 µM; in the experiment with M19-MEL melanoma it was 44.1 µM.
Consider `CCOC(=O)/C(=C/c1ccccc1Br)P(=O)(OCC)OCC`, for which the TGI came to 5.67 µM with KM20L2 colon; 4.85 µM with DLD-1 colon; 8.45 µM in the experiment with RXF-631 renal; 2.92 µM in the experiment on LXFL 529 NSCLC; 3.56 µM in the experiment with XF 498 CNS; 10.7 µM in the experiment on HOP-18 NSCLC. For the same compound, the TGI with M19-MEL melanoma amounted to 3.68 µM.
Consider `O=C(Cc1ccccc1)NN1C(=O)C(Cl)C1c1cccc([N+](=O)[O-])c1` (stereo not given), for which the TGI in the experiment on KM20L2 colon was above 100 µM; in the experiment with DLD-1 colon, above 100 µM; in the experiment on LXFL 529 NSCLC it was 49.7 µM; in the experiment on DMS 114 small cell lung it was above 93.4 µM; in the experiment with XF 498 CNS, above 57.1 µM; with SNB-78 CNS, above 100 µM. The TGI in the experiment on HOP-18 NSCLC is above 100 µM; in the experiment on M19-MEL melanoma, above 37.1 µM.
Consider `CCCCCC#COC1CC(C)CC[C@@H]1C(C)C` (stereo not given in full), for which the TGI in the experiment on KM20L2 colon, in the experiment on DLD-1 colon, in the experiment on LXFL 529 NSCLC, in the experiment with SNB-78 CNS, in the experiment with HOP-18 NSCLC and in the experiment on M19-MEL melanoma was above 100 µM each time.
As for `N#Cc1ccc(C(C2C(=O)NC(=O)NC2=O)C2C(=O)NC(=O)NC2=O)cc1`, the TGI in the experiment with KM20L2 colon, in the experiment with LXFL 529 NSCLC and in the experiment with M19-MEL melanoma was above 100 µM in each case.
Take `O=C(Cc1ccccc1)N/N=C(/c1nc2ccc([N+](=O)[O-])cc2[nH]c1=O)C(O)c1ccc(C(O)/C(=N/NC(=O)Cc2ccccc2)c2nc3ccc([N+](=O)[O-])cc3[nH]c2=O)cc1` (stereo not given): the TGI in the experiment on KM20L2 colon, with DLD-1 colon, with RXF-631 renal, in the experiment with LXFL 529 NSCLC, in the experiment on DMS 114 small cell lung and with XF 498 CNS was above 100 µM throughout. The compound also had a TGI in the experiment with M19-MEL melanoma above 100 µM.
Consider `O=C1C=CC(=O)c2cc(Sc3ccccc3)c(=O)c(Sc3ccccc3)cc21`, for which the TGI with KM20L2 colon is above 100 µM; with DLD-1 colon it was above 100 µM; with LXFL 529 NSCLC, 70.3 µM; in the experiment with DMS 114 small cell lung it was 53.7 µM; in the experiment with XF 498 CNS, above 100 µM; in the experiment on HOP-18 NSCLC, above 100 µM. Besides, the TGI in the experiment on M19-MEL melanoma was above 100 µM.
In the case of `O=P(CCOc1ccccc1OCCP(=O)(c1ccccc1)c1ccc2c(c1)OCCOCCOCCOCCO2)(c1ccccc1)c1ccc2c(c1)OCCOCCOCCOCCO2` (stereo not given), the TGI in the experiment with KM20L2 colon, with DLD-1 colon, in the experiment on LXFL 529 NSCLC, with DMS 114 small cell lung, in the experiment with XF 498 CNS and in the experiment with SNB-78 CNS was above 100 µM in each case. In the experiment with M19-MEL melanoma, this compound had a TGI above 100 µM.
As for `COc1ccc2[nH]c3c4c(cc(-c5ccccc5)c3c2c1)C(=O)N(c1ccccc1)C4=O`, the TGI in the experiment on KM20L2 colon was above 100 µM; with DLD-1 colon, above 100 µM; with LXFL 529 NSCLC it was 64.3 µM; with DMS 114 small cell lung, above 100 µM; with SNB-78 CNS, above 88.3 µM; in the experiment on HOP-18 NSCLC, above 100 µM. This compound returned a TGI in the experiment on M19-MEL melanoma above 100 µM.
With `Cc1ccc(C(=O)N2CCCCC2)cc1N=NN(C)C`, the TGI in the experiment with DLD-1 colon, with LXFL 529 NSCLC, in the experiment on DMS 114 small cell lung and with M19-MEL melanoma was above 100 µM each time.
Regarding `CCCCCCCC(CC(=O)NC(CO)C(=O)NC(CO)CC(C)C)OC(=O)CC(CCCCCCC)OC(=O)CC(CCCCCCC)OC1OC(C)C(O)C(OC2OC(C)C(O)C(O)C2O)C1O` (stereo not given), the TGI in the experiment on KM20L2 colon is 32.1 µM; in the experiment on DLD-1 colon it was 31.7 µM; with LXFL 529 NSCLC, 18.1 µM; in the experiment with DMS 114 small cell lung, 16.5 µM; with SNB-78 CNS, 39.1 µM; in the experiment on HOP-18 NSCLC, 32.1 µM. The TGI in the experiment on M19-MEL melanoma amounted to 23.3 µM.
For `COC1=CC(=O)c2c(cc3c(c2O)-c2c(OC)cc4cc5c(c(O)c4c2OC(=O)CC(C)(O)C3)C(=O)CC(C)(O)C5)C1=O` (stereo not given), the TGI with KM20L2 colon was found to be 5.29 µM; in the experiment on DLD-1 colon, 9.01 µM; with LXFL 529 NSCLC, 4.6 µM; with DMS 114 small cell lung, 3.58 µM; with XF 498 CNS, 3.23 µM; with SNB-78 CNS it was 7.12 µM. In addition, the results for the TGI with HOP-18 NSCLC and in the experiment on M19-MEL melanoma were 5.39 µM and 1.52 µM, respectively.
For `CC(C)(CN1CCCCC1)C(=O)CC(SCCN)c1ccc(Cl)cc1` (stereo not given), the TGI in the experiment with KM20L2 colon is 5.43 µM; in the experiment on DLD-1 colon, 3.35 µM; in the experiment with RXF-631 renal, 14.3 µM; in the experiment with LXFL 529 NSCLC it was 3.33 µM; with DMS 114 small cell lung, 3.43 µM; in the experiment on XF 498 CNS, 4.1 µM. Also, the TGI was 8.9 µM with SNB-78 CNS and 7.39 µM in the experiment with M19-MEL melanoma.
